Results on five molecules are retold here after the NIST ThermoML archive (doi:10.1021/je900967j).

A short description of this series: xn = mol fraction of the nth substance listed. To be noted: 298.15 K; 101 kPa; Liquid; Dispersion; x1 = 0.
As to `OCc1ccccc1` [benzenemethanol] + O, the binary diffusion coefficient came out at 8.3e-10 m2/s.
In the case of `OCCCCc1ccccc1` [4-phenyl-1-butanol] + O, the binary diffusion coefficient was determined as 6.64e-10 m2/s.
As for `OCCCCCc1ccccc1` [1-pentanol, 5-phenyl-] + O, the figure is 5.32e-10 m2/s; as for `OCCc1ccccc1` [2-phenylethanol] + O, 7.92e-10 m2/s.
On to `OCCCc1ccccc1` [3-phenyl-1-propanol] + O, for which the binary diffusion coefficient worked out at 7.22e-10 m2/s.
